According to patent US4766122A, “Cyanoamidine compounds and derivatives thereof” (Smith Kline & French Laboratories Limited, priority 1985, dated 1988):

What was measured:
[1] = tested on: left ventricular dp/dt max (left ventricular contractility); assay: Cardiac stimulant activity in vivo: left ventricular dp/dt max in anaesthetised cats; set-up: species or system cat; conditions: anaesthetised cats pretreated with pempidine and propranolol, intravenous
[2] = tested on: guinea pig right ventricular strips; assay: Cardiac stimulant activity in vitro: increase in force of contraction of electrically stimulated ventricular strips; conditions: Cavia porcellus, read-out: EC50 (50% increase in the force of contraction of the ventricular strips); 37° C., stimulated at 1.0 Hz, cumulative concentration response
Description: The compounds of formula (I) and their pharmaceutically acceptable salts are tested for cardiac stimulant activity following a procedure based on that of S.C. Verma and J. H. McNeill (J. Pharm & Exp. Therapeutics, 200, 352-362 (1977)). Guinea pigs (500-700 g) of either sex are sacrificed and the hearts are quickly removed and transferred to a dissecting dish containing oxygenated bathing fluid. While in the bathing medium, the right ventricle is cut into two strips. The strips are each suspended in a 50 ml bath containing Krebs Henseleit solution at 37° C., and the bath is bubbled with 95% oxygen and 5% carbon dioxide. The ventricular strips are electrically stimulated at a frequency of 1.0 Hz, at double the threshold voltage. A resting tension of 1.0 g is applied to the strips and the tension is kept constant by readjustment during an equilibration period of 60 minutes. The bathing fluid is frequently changed during this period. When a steady base line is obtained, a compound under test is added to the bathing fluid and a cumulative concentration response curve is plotted.

PDE (Peak III) [3] = assay: Inhibition of PDE (Peak III) from cat heart; assay type: biochemical; conditions: read-out: IC50 (50% inhibition of PDE (Peak III) activity); 1 μM cyclic AMP, 37°, pH 7.5
Description: (§1) There were three major peaks which had the following characteristics:
(§2) The enzyme was assayed by incubation at 37° for 4-30 min in 50 mM Tris, 5 mM MgCl2, pH 7.5 with [3-H]cyclic nucleotide (4×10^5 disintegrations min^-1) and [14-C]nucleotide 5' monophosphate (3×10^3 disintegrations min^-1). […] The reaction mixture was diluted with 0.5 ml 100 mM HEPES (N-2-Hydroxyethyl-piperazine-N'-2-ethanesulfonic acid), 100 mM NaCl, pH 8.5, and applied to the column. […] The recovery of product as judged by [14-C]recovery was approximately 80%. All assays were linear with time of incubation and concentration of enzyme over the range used in these experiments.

PDE (Peak I) = assay: Substrate kinetics of PDE (Peak I) from cat heart; assay type: biochemical
PDE (Peak II) = conditions: eluted at 0.3 M Na acetate
Description: as §1, §2

PDE (Peak III) [4] = conditions: eluted at 0.5 M Na acetate
Description: as §1, §2

EC50 [2]	IC50 (PDE (Peak III) [3])	Km (PDE (Peak II))	Km (PDE (Peak III) [4])	Compound	duration of activity [1]	ED50 ([1]; Felis catus, read-out: ED50 (dose to increase left ventricular dp/dt max by 50%))	Relative Vmax (PDE (Peak I); 50 μg/ml calmodulin added)	Relative Vmax (PDE (Peak I); without 50 μg/ml calmodulin)	Relative Vmax (PDE (Peak II))	Relative Vmax (PDE (Peak III) [4])
–	–	–	–	Nc1cc(-c2ccncc2)c[nH]c1=O [Amrinone]	short duration of activity	–	–	–	–	–
65 nM	80 nM	–	–	CCC(=NC#N)Nc1ccc(C2=NNC(=O)CC2C)cc1 (centres unmarked) [Example 1, 6-[4-(N^2 -Cyanopropanimidamido)phenyl]-5-methyl-4,5-dihydro-3(2H)-pyridazinone]	long duration of activity	0.02 µmol/kg	–	–	–	–
–	–	28 µM	2.9 µM	Nc1nc2c(ncn2[C@@H]2O[C@@H]3COP(=O)(O)O[C@H]3[C@H]2O)c(=O)[nH]1 [cyclic GMP]	–	–	7.2	1.1	0.2	0.4
